We go through 28 compounds from patent US20060281763A1, “Carboxamide inhibitors of TGFbeta” (priority 2005, published 2006).

In this test the target is T1, TGFβ R1 (Homo sapiens, UniProt P36897).
T1 sequence (P36897 34-503): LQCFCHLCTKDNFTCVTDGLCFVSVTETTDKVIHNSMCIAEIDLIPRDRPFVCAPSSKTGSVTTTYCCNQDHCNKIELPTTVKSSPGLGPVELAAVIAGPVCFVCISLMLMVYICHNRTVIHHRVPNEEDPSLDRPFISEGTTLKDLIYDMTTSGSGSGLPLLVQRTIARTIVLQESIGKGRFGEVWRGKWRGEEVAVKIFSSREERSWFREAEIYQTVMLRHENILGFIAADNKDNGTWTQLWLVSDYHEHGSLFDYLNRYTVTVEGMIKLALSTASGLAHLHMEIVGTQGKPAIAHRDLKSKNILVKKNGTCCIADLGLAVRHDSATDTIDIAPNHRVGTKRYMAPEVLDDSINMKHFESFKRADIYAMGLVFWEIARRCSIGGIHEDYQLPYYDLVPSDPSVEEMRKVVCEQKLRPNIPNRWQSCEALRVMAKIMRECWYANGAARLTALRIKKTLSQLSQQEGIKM
Briefly: TGFβ R1 autophosphorylation protocol (33P-ATP, phosphocellulose filter plate). Format: biochemical. Conditions: 10 uM ATP, read-out: IC50 for Kinase Inhibition. The gist of the method:
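Incorporation of 33P from γ-33P-ATP (10 uM ATP final) into the kinase itself (170 nM) measured by phosphocellulose capture and scintillation counting. Incubation 20 min at room temperature in 20 mM MOPS pH 7 with […]; final DMSO ≤1%.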

Where [1] appears, read: 170 nM TGFβ R1, room temperature 20 minutes.
The mark [2] stands for this setting: 170 nM TGFβ R1, 20 minutes at room temperature.

Where two headings read alike, the source gives them in different places.

As for `CC(C)c1cnc(-c2cc(Cl)ccc2F)nc1Nc1ccncc1C(=O)N1CCN(C)CC1` [Compound 208, {4-[2-(5-Chloro-2-fluoro-phenyl)-5-isopropyl-pyrimidin-4-ylamino]-pyridin-3-yl}-(4-methyl-piperazin-1-yl)-methanone], the IC50 under setting [1] stood at 1620 nM.
Same read-out and setting: to `CCOP(=O)(OCC)OC(C)(C)CNC(=O)c1cnccc1Nc1nc(-c2cc(Cl)ccc2F)ncc1C(C)C` [Compound 192] belongs 122 nM.
Consider `COc1cnc(-c2cc(Cl)ccc2F)nc1Nc1ccncc1C(=O)NCC(C)C(=O)O` (stereo not shown) [Compound 56, 3-({4-[2-(5-Chloro-2-fluoro-phenyl)-5-methoxy-pyrimidin-4-ylamino)-pyridine-3-carbonyl)-amino)-2-methyl-propionic acid], for which, under setting [2], the IC50 was 1200 nM.
For the compound `O=C(c1cnccc1Nc1nc(-c2cc(Cl)ccc2F)ncc1C1CCCC1)N1CC[C@H](O)C1` [Compound 212, {4-[2-(5-chloro-2-fluoro-phenyl)-5-cyclopentyl-pyrimidin-4-ylamino]-pyridin-3-yl}(3-hydroxy-pyrrolidin-1-yl)-methanone], under setting [1], the IC50 is 673 nM.
Take `COc1cnc(-c2cc(Cl)ccc2F)nc1Nc1ccncc1C(=O)NCCNCCOC1O[C@H](COC(C)=O)[C@@H](OC(C)=O)[C@H](OC(C)=O)[C@H]1OC(C)=O` (stereo partly shown) [Compound 142, Acetic acid 3,4,5-triacetoxy-6-(2-[2-({4-[2-(5-chloro-2-fluoro-phenyl)-5-methoxy-pyrimidin-4-ylamino]-pyridine-3-carbonyl]-amino)-ethylamino]-ethoxy}tetrahydro-pyran-2-ylmethyl ester]: the IC50 under setting [2] was 10 nM.
On to `COc1cnc(-c2cc(Cl)ccc2F)nc1Nc1ccncc1C(=O)NCCCOCC(O)CO` (stereo not shown) [Compound 163, 4-[2-(5-Chloro-2-fluoro-phenyl)-5-methoxy-pyrimidin-4-ylamino]-N-[3-(2,3-dihydroxy-propoxy)-propyl]-nicotinamide], for which the IC50 under setting [1] turned out to be 33 nM.
Still for that read-out and setting: to `CCOP(=O)(OCC)O[C@@H](C)CNC(=O)c1cnccc1Nc1nc(-c2cc(Cl)ccc2F)ncc1C(C)C` [Compound 233, Phosphoric acid 2-{(4-[2-(5-chloro-2-fluoro-phenyl)-5-isopropyl-pyrimidin-4-ylamino]-pyridine-3-carbonyl}-amino)-1-methyl-ethyl ester diethyl ester] belongs 280 nM.
Consider `CC(C)c1cnc(-c2cc(Cl)ccc2F)nc1Nc1ccncc1C(=O)NCCCN1CCC[C@@H]1C(=O)N(C)C` [Compound 181, 4-[2-(5-Chloro-2-fluoro-phenyl)-5-isopropyl-pyrimidin-4-ylamino]-N-[3-(2-dimethylcarbamoyl-pyrrolidin-1-yl)-propyl]-nicotinamide], for which, under setting [1], the half-maximal inhibitory concentration (IC50) was 6 nM.
As for `COc1cnc(-c2cc(Cl)ccc2F)nc1Nc1ccncc1C(=O)NCCCNC(=O)OC(C)(C)C` [Compound 33, [3-({4-[2-(5-Chloro-2-fluoro-phenyl)-5-methoxy-pyrmidin-4-ylamino]-pyridine-3-carbonyl}-amino)-propyl]-carbamic acid tert-butyl ester], the IC50 under setting [2] is 1130 nM.
As to `COc1cnc(-c2cc(Cl)ccc2F)nc1Nc1ccncc1C(=O)N[C@@H]1CCNC1` [Compound 138, 4-[2-(5-Chloro-2-fluoro-phenyl)-5-methoxy-pyrimidin-4-ylamino]-N-pyrrolidin-3-yl-nicotinamide], the IC50 under setting [2] came to 24 nM.
Turning to `CONC(=O)c1cnccc1Nc1nc(-c2cc(Cl)ccc2F)ncc1OC` [Compound 120, 4-[2-(5-Chloro-2-fluoro-phenyl)-5-methoxy-pyrimidin-4-ylamino]-N-methoxy-nicotinamide], the IC50 under setting [2] is 190 nM.
Same read-out and setting: with `CNC(=O)[C@@H]1CCCN1CCCNC(=O)c1cnccc1Nc1nc(-c2cc(Cl)ccc2F)ncc1OC` [Compound 122, 4-[2-(5-Chloro-2-fluoro-phenyl)-5-methoxy-pyrimidin-4-ylamino]-N-[3-(2-methylcarbamoyl-pyrrolidin-1-yl)-propyl]-nicotinamide] the figure was 53 nM; with `COc1cnc(-c2cc(Cl)ccc2F)nc1Nc1ccncc1C(=O)NCCCNCCO[C@H]1O[C@H](CO)[C@H](O)[C@H](O)[C@H]1O` [Compound 139, 4-[2-(5-Chloro-2-fluoro-phenyl)-5-methoxy-pyrimidin-4-ylamino]-N-{3-[2-(3,4,5-trihydroxy-6-hydroxymethyl-tetrahydro-pyran-2-yloxy)-ethylamino]-propyl}-nicotinamide], 7 nM.
In the case of `COCC(COC)NC(=O)c1cnccc1Nc1nc(-c2cc(Cl)ccc2F)ncc1C(C)C` [Compound 195, 4-[2-(5-Chloro-2-fluoro-phenyl)-5-isopropyl-pyrimidin-4-ylamino]-N-(2-methoxy-1-methoxymethyl-ethyl)-nicotinamide], under setting [1], the IC50 worked out at 424 nM.
Regarding `COc1cnc(-c2cc(Cl)ccc2F)nc1Nc1ccncc1C(=O)NCCNC(=O)OC(C)(C)C` [Compound 32, [2-({4-[2-(5-Chloro-2-fluoro-phenyl)-5-methoxy-pyrimidin-4-ylamino]-pyridine-3-carbonyl}-amino)-ethyl]-carbamic acid tert-butyl ester], the IC50 under setting [2] is 560 nM.
Regarding `CC(C)c1cnc(-c2cc(Cl)ccc2F)nc1Nc1ccncc1C(=O)NC[C@H](C)OC(=O)CN` [Compound 229, Amino-acetic acid 2-{[4-[2-(5-chloro-2-fluoro-phenyl)-5-isopropyl-pyrimidin-4-ylamino]-pyridine-3-carbonyl}-amino]-1-methyl-ethyl ester], the 50% inhibitory concentration (IC50) under setting [1] came out at 19 nM.
Turning to `COc1cnc(-c2cc(Cl)ccc2F)nc1Nc1ccncc1C(=O)N[C@H]1CN[C@@H](C(=O)N(C)C)C1` [Compound 107, 4-[2-(5-Chloro-2-fluoro-phenyl)-5-methoxy-pyrimidin-4-ylamino]-N-(5-dimethylcarbamoyl-pyrrolidin-3-yl)-nicotinamide], under setting [2], the IC50 worked out at 90 nM.
Still for that read-out and setting: with `COc1ccc(NC(=O)NCCNC(=O)c2cnccc2Nc2nc(-c3cc(Cl)ccc3F)ncc2OC)cc1` [Compound 79, 4-[2-(5-Chloro-2-fluoro-phenyl)-5-methoxy-pyrimidin-4-ylamino]-N-{2-[3-(4-methoxy-phenyl)-ureido]-ethyl}-nicotinamide] the figure was 350 nM; with `COc1cnc(-c2cc(Cl)ccc2F)nc1Nc1ccncc1C(=O)NCCCN/C(=N/C#N)N1CCC1` [Compound 44], 130 nM.
In the case of `COc1cnc(-c2cc(Cl)ccc2F)nc1Nc1ccncc1C(=O)NC1CC1CO` (stereo not shown) [Compound 160, 4-[2-(5-Chloro-2-fluoro-phenyl)-5-methoxy-pyrimidin-4-ylamino]-N-(2-hydroxymethyl-cyclopropyl)-nicotinamide], the IC50 under setting [1] is 9 nM.
In the case of `CNC(=O)NCCCNC(=O)c1cnccc1Nc1nc(-c2cc(Cl)ccc2F)ncc1OC` [Compound 74, 4-[2-(5-Chloro-2-fluoro-phenyl)-5-methoxy-pyrimidin-4-ylamino]-N-[3-(3-methyl-ureido)-propyl]-nicotinamide], the IC50 under setting [2] stood at 150 nM.
In the case of `COc1cnc(-c2cc(Cl)ccc2F)nc1Nc1ccncc1C(=O)NCC(C)(C)N` [Compound 130, N-(2-Amino-2-methyl-propyl)-4-[2-(5-chloro-2-fluoro-phenyl)-5-methoxy-pyrimidin-4-ylamino]-nicotioamide], under setting [2], the IC50 was 38 nM.
Take `CNC(=O)c1cnccc1Nc1nc(-c2cc(Cl)ccc2F)ncc1Cl` [Compound 119, 4-[5-Chloro-2-(5-chloro-2-fluoro-phenyl)-pyrimidin-4-ylamino]-N-methyl-nicotinamide]: the IC50 under setting [2] worked out at 155 nM.
Take `CC(C)c1cnc(-c2cc(Cl)ccc2F)nc1Nc1ccncc1C(=O)N[C@H]1CCC[C@@H]1O` [Compound 83, 4-[2-(5-Chloro-2-fluoro-phenyl)-5-isopropyl-pyrimidin-4-ylamino)-N-(2-hydroxy-cyclopentyl)-nicotinamide]: the IC50 under setting [2] stood at 230 nM.
In the case of `CC(C)OCCCNC(=O)c1cnccc1Nc1nc(-c2cc(Cl)ccc2F)ncc1C(C)C` [Compound 189, 4-[2-(5-Chloro-2-fluoro-phenyl)-5-isopropyl-pyrimidin-4-ylamino]-N-(3-isopropoxy-propyl)-nicotinamide], the IC50 under setting [1] was determined as 74 nM.
For `COc1cnc(-c2cc(Cl)ccc2F)nc1Nc1ccncc1C(=O)NCCCNCCC1O[C@H](CO)[C@@H](O)[C@H](O)[C@@H]1O` (stereo partly shown) [Compound 154, 4-[2-(5-Chloro-2-fluoro-phenyl)-5-methoxy-pyrimidin-4-ylamino]-N-{3-[2-(3,4,5-trihydroxy-6-hydroxymethyl-tetrahydro-pyran-2-yl)-ethylamino]-propyl}-nicotinamide], under setting [2], the IC50 came to 10 nM.
Regarding `COc1cnc(-c2cc(Cl)ccc2F)nc1Nc1ccncc1C(=O)NC1CCN(CCC2O[C@H](CO)[C@@H](O)[C@H](O)[C@H]2O)CC1` (stereo partly shown) [Compound 137, 4-[2-(5-Chloro-2-fluoro-phenyl)-5-methoxy-pyrimidin-4-ylamino]-N-{1-[2-(3,4,5-trihydroxy-6-hydroxymethyl-tetrahydro-pyran-2-yl)-ethyl]-piperidin-4-yl}-nicotinamide], the half-maximal inhibitory concentration (IC50) under setting [2] turned out to be 18 nM.
Consider `COc1cnc(-c2cc(Cl)ccc2F)nc1Nc1ccncc1C(=O)NCC1CN(Cc2ccccc2)CCO1` (stereo not shown) [Compound 30, N-(4-Benzyl-morpholin-2-ylmethyl)-4-[2-(5-chloro-2-fluoro-phenyl)-5-methoxy-pyrimidin-4-ylamino)-nicotinamide], for which the IC50 under setting [2] is 2370 nM.
